Assay results: patent US20230141863A1, “Small Molecule Inhibitors Targeting the Sodium Channel Tamoxifen Receptor and Uses Thereof” (Northwestern University, priority 2021, published 2023)
Read-outs that look alike come from different tables or passages of the source.

Tested on: DRG action potentials
Assay: Current clamp recording of cultured DRG neuron action potentials
Type: cell-based, mouse
Conditions: for IC50: Mus musculus, DRG neuron, 2-4 minutes of extracellular drug treatment
Excerpt: FIG. 4. N-desmethyl tamoxifen inhibits DRG neuronal transmission. A) Exemplar action potentials recorded from an isolated DRG neuron in control and ND-Tam-treated conditions using a 1 second, 80 pA injection of current. After the experiment was complete, drug was washed out of the bath for five minutes and recovery from inhibition was retested. Consistent with previous reports, the resting membrane potential of the DRG neurons was −53.4±5 mV (Error is equal to S.D., n=109) (PMID: 8052416). B, C) The potency of ND-Tam inhibition on DRG action potential frequency and peak amplitude. Open symbols represent responses from individual cells while filled symbols represent average response per concentration. Error is equal to S.E.M. and the number of cells tested per treatment group is indicated within the parentheses. D, E) A comparison of the potency of cannabidiol (CBD) and carbamazepine (CBZ) inhibition on action potential frequency and peak amplitude. As done previously, drug concentration-INa inhibition relationships were fit to the Hill equation. Open symbols represent responses from individual cells while filled symbols represent average response per concentration. Error is equal to S.E.M. and the number of cells tested per treatment group is indicated within the parentheses.
FIG. 10. N-desmethyl tamoxifen inhibits spontaneous action potentials in sensory neurons. A) Exemplar spontaneous action potentials, recorded from a DRG neuron without injecting current, inhibited by 100 nM N-desmethyl tamoxifen. B) Morphology of a single spontaneous action potential in DRG neuron C) Inhibition of spontaneous action potential frequency by 100 nM ND-Tam (P=0.04). Open symbols represent responses from individual cells and filled symbols represent the average response. Error is equal to S.E.M. from 6 spontaneously firing DRG neurons.
DRG neurons act as a filter to electrical information from the periphery, required for the perception of pain, generated by several types of ion channels, including Navs. For that reason, the inventors compared the pharmacology of ND-Tam against cultured DRG action potentials recorded using current clamp (FIG. 4A). The inventors then compared DRG action potential frequency and amplitude before and after 2-4 minutes of extracellular drug treatment (FIG. 4A-C, FIG. 14). […] After exchanging the drug for control saline for 2 minutes, ND-Tam inhibition of action potential frequency and peak amplitude was persistent (FIG. 4A), which is consistent with the observed slow dissociation of the drug with sodium channels (FIG. 1B, D).
Dorsal root ganglia were isolated using a modified version of the previously described protocol (PMID: 26864470). All animal procedures were approved by the Institutional Animal Care and Use Committee at the Feinberg Medical School, Northwestern University. The spinal columns of 4-6-week-old […] or Nav1.8-Tomato mice (Nav1.8-Td) were removed and DRG neurons from all spinal levels were isolated for primary culture (PMID: 33827672, PMID: 31351964). The collected DRGs, containing both neuronal and non-neuronal cells, were acutely dissociated in DMEM with collagenase IV (2 mg/mL) for 30 minutes, followed by papain (25 U/mL) for 30 minutes. The cells were then triturated, filtered through a 40 μm cell strainer to remove non-dissociated cells, and washed with DMEM. […]

## CC/C(=C(\c1ccccc1)c1ccc(OCCNC)cc1)c1ccccc1 [ND-Tam, 2-[4-[(Z)-1,2-diphenylbut-1-enyl]phenoxy]-N-methylethanamine]
  potency against action potential frequency and peak amplitude compared with CBZ and CBD (in words): more potent inhibitor of DRG action potential frequency and peak amplitude than CBZ and CBD
100 nM, three-minute extracellular application, n=6, P=0.04
  reduction of the frequency of spontaneous sensory neuron action potentials: 91%
80 pA of injected current, read-out: IC50 against action potential peak amplitude
  IC50: 1300 nM
Elicited by 80 pA of injected current, read-out: IC50 against action potential firing frequency
  IC50: 119 nM
After exchanging the drug for control saline for 2 minutes
  inhibition of action potential frequency and peak amplitude after washout (in words): persistent
